How the values were obtained:
[1] = Inhibition of Influenza A virus A/California/04/2009 (H1N1) N-terminal his tagged domain of PA endonuclease expressed in Escherichia coli BL21 (DE3) cells preincubated with enzyme for 1 hr followed by RNA addition and measured after 90 mins by MALDI-FTICR-MS analysis
[2] = Binding affinity to Influenza A virus A/California/04/2009 (H1N1) wild type N-terminal his tagged domain of PA endonuclease expressed in Escherichia coli BL21 (DE3) cells assessed as dissociation constant by MST assay

Structure (SMILES)	IC50 [1] [nM]	Kd [2] [nM]
COc1cnccc1CCNC(=O)c1nc(-c2c(F)cccc2F)[nH]c(=O)c1O	1110	–
O=C1c2c(O)c(=O)ccn2N([C@@H]2c3ccccc3SCc3c2ccc(F)c3F)C2COCCN12 (stereo partly drawn)	50	6
CC(C)(NC(=O)OCc1ccccc1)c1nc(C(=O)NCCn2cnc3c(N)ncnc32)c(O)c(=O)[nH]1	1620	–
O=C1NCCc2cccc(c2)OCCCCOc2cccc(c2)-c2nc1c(O)c(=O)[nH]2	> 20000	–
COc1cc(CCNC(=O)c2nc(C(C)(C)NC(=O)OCc3ccccc3)[nH]c(=O)c2O)ccc1O	620	–
Nc1ncnc2c1ncn2CCNC(=O)c1nc(-c2ccccc2C(F)(F)F)[nH]c(=O)c1O	290	18
O=C1NCCc2cccc(c2)OC/C=C\COc2cccc(c2)-c2nc1c(O)c(=O)[nH]2	4960	–
CC(C)(NC(=O)OCc1ccccc1)c1nc(C(=O)NCc2ccc(F)cc2)c(O)c(=O)[nH]1	> 20000	–
COc1cnccc1CCNC(=O)c1nc(-c2ccccc2C(F)(F)F)[nH]c(=O)c1O	420	54
COc1cnccc1CCNC(=O)c1nc(-c2ccccc2)[nH]c(=O)c1O	1220	–
Cc1nnc(C(=O)NC(C)(C)c2nc(C(=O)NCc3ccc(F)cc3)c(O)c(=O)n2C)o1 [RALTEGRAVIR]	> 20000	–
COc1cc(CCNC(=O)c2nc(-c3ccccc3C(F)(F)F)[nH]c(=O)c2O)ccc1O	270	–
COc1cnccc1CCNC(=O)c1nc(-c2cccc(C(F)(F)F)c2)[nH]c(=O)c1O	4530	–
COc1cnccc1CCNC(=O)c1nc(Cc2ccccc2C(F)(F)F)[nH]c(=O)c1O	> 20000	–
CC(C)(NC(=O)OCc1ccccc1)c1nc(O)c(O)c(C(=O)NCCc2ccc(F)cc2)n1	6450	–
COc1cnccc1CCNC(=O)c1nc(-c2ccccc2C)[nH]c(=O)c1O	390	–
COc1cnccc1CCNC(=O)c1nc(C(C)(C)NC(=O)OCc2ccccc2)[nH]c(=O)c1O	1970	–
O=C1NCCc2cccc(c2)OC/C=C/COc2cccc(c2)-c2nc1c(O)c(=O)[nH]2	12500	–
COc1cnccc1CCNC(=O)c1nc(-c2ccccc2F)[nH]c(=O)c1O	820	–
COc1cnccc1CCNC(=O)c1nc(-c2ccc(C(F)(F)F)cc2)[nH]c(=O)c1O	> 20000	–

Reference: ChEMBL document CHEMBL5331099, “Chemical scaffold recycling: Structure-guided conversion of an HIV integrase inhibitor into a potent influenza virus RNA-dependent RNA polymerase inhibitor designed to minimize resistance potential” (Eur J Med Chem, 2023)
